Measurements reported in patent US5792777A, “Biphenyl quinuclidines” (Zeneca Limited, priority 1991, dated 1998).

Tests used:
Squalene Synthetase = target: T1, Squalene Synthetase (Rattus norvegicus, UniProt Q02769); experiment: Inhibition of Squalene Synthetase (formation of squalene from tritiated farnesyl pyrophosphate, rat liver microsomal protein); type: biochemical; conditions: 20 μM 1-[3H]-farnesyl pyrophosphate, 15 minutes, 37° C., read-out: IC50 (concentration which results in a 50% inhibition of squalene production)
T1 construct: from tissue; host or cells: rat liver microsomes
T1 sequence (Q02769 1-416): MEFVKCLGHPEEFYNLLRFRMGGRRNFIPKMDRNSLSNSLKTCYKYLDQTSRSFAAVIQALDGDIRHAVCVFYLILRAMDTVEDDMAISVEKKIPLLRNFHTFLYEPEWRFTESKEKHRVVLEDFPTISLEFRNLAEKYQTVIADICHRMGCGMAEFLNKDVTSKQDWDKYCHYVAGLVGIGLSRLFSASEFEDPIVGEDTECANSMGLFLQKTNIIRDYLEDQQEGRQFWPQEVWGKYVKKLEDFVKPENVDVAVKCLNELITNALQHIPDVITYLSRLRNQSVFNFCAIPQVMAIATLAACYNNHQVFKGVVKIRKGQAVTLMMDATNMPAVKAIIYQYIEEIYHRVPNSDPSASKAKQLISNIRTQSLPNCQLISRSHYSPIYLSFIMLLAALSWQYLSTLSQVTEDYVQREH
Method: (a) Inhibition of Squalene Synthetase
In this test, the ability of a compound to prevent the formation of squalene from a radioactive substrate (tritiated farnesyl pyrophosphate) is assessed.
The test compound is incubated at a concentration of 25 micromolar in 200 μl of a buffered solution containing potassium phosphate (50 mM), MgCl2 (4.95 mM), KF (9.9 mM), NADPH (0.9 mM) and rat liver microsomal protein (20 μg). Rat liver microsomes are prepared by the method described in published European Patent Application No. 324,421 and stored in liquid nitrogen prior to assay. Assay vials are kept at 37° C. throughout the incubation.
The reaction is started with the addition of the substrate (1-[^3 H]-farnesyl pyrophosphate), final concentration 20 μM, and stopped after 15 minutes reaction time with the addition of 50 μl of 4% KOH. The reaction products are separated from unreacted substrate after application to a C-18 octadecyl 1ccBond column (Analytichem Int product No. 617101). An aqueous fraction is eluted with 250 μl of 0.1M KOH. Squalene is then eluted with 1.0 ml 10% ethylacetate in hexane and radioactivity determined. The difference in radioactivity in the presence and absence of the test compound is used to determine the level of inhibition. […] The IC50 can then be determined from a plot of percentage inhibition against concentration of test compound.

[1] = tested on: de novo hepatic cholesterol synthesis; experiment: Acute Rat Cholesterol Synthesis Assay (de novo hepatic cholesterol synthesis from exogenously administered 14C-acetate); type: in vivo; conditions: female rats, oral gavage, ip or iv (route not specified), 14C-acetate ip after 1 hour, blood sample a further hour later
Method: (b) Acute Rat Cholesterol Synthesis Assay
This is an acute in vivo test in the rat to measure de novo hepatic cholesterol synthesis from exogenously administered ^14 C-acetate.
Female rats (35-55 g) are housed in reverse lighting conditions (red light from 0200h-1400h) for a period of about 2 weeks prior to test. Animals are allowed free access to chow and drinking water throughout this period. At test, animals should weigh 125-150 g.
Test compounds may be administered by oral gavage, dissolved or suspended in 0.5% polysorbate, or by ip or iv dosing. Control animals receive vehicle alone. After 1 hour the rats are injected ip with 25 μCi [2-^14 C]-acetate (NEN DUPONT. specific activity, 45-60 mCi/mmol NEC-085H, or AMERSHAM specific activity, 50-60 mCi/mmol CFA 14) in a volume of 0.25 ml saline (100 μCi/ml). After a further hour, rats are terminally anaesthetised with halothane and a blood sample obtained from the abdominal vena cava.
1 ml of plasma is lyophilised and then saponified in 2 ml ethanolic KOH (1 part 33% KOH, 9 parts ethanol) at 75° C. for 2 hours. After addition of an equal quantity of water, non-saponifiable lipids are extracted with two 5 ml volumes of hexane. The hexane extracts are evaporated to dryness and the residues dissolved in ethanol to determine cholesterol specific radioactivity. ED50 values can be determined in the standard way.

| SMILES | IC50 (Squalene Synthetase) | ED50 [1] |
| --- | --- | --- |
| OC1(c2cccc(-c3ccccc3)c2)CN2CCC1CC2 (centres unmarked) [Example 3, 3-(biphenyl-3-yl)-3-hydroxyquinuclidine] | 600 nM | – |
| OC1(c2ccc(-c3ccc(F)cc3)cc2)CN2CCC1CC2 (centres unmarked) [Example 6, 3-[4'-fluorobiphenyl-4-yl]-3-hydroxyquinuclidine] | – | 8 mg/kg |
